How the values were obtained:
Plasma protein binding = format: in vitro ADME
Description: Plasma protein binding: Mouse, rat, dog, and human plasmas were obtained from TCS Biosciences Ltd and Sera Laboratories Ltd. A total of 20 μmol/L RXC004 in 10% plasma diluted with phosphate buffer was dialyzed against phosphate buffer for 18 hours at 37°C. The concentration of RXC004 each side of the dialysis plate was determined by LC/MS-MS. Results were corrected to 100% plasma.

SNU-1411 xenograft [1] = assay: In vivo 18FDG-PET; design: species or system mouse (NOD-SCID); settings: SNU-1411, 5 mg/kg once daily
Description: Experiment was performed at Medicines Discovery Catapult. SNU-1411 (1 × 10^7 cells; NOD-SCID mice) or HPAF-II (1 × 10^7 cells; NOD-SCID mice) were implanted subcutaneously and treatment with RXC004 (5 mg/kg once daily) or vehicle commenced when tumors reached approximately 200 mm^3. Mice were imaged prior to dosing, day 3 and day 7 after dosing. A 10 MBq injection of ^18FDG (PETNET), with a 45-minute washout was followed by a 20-minute PET scan using a Siemens Inveon PET scanner. Tissues removed on day 7 for biodistribution analysis were assessed using a PerkinElmer Wallac Wizard Gamma counter.

[2] = test system: small intestine of SCID-Beige mice; assay: In vivo toxicity in mice, 28 days (small intestine H&E, Ki67, body weight); design: species or system mouse (SCID-Beige)
Description: Groups of 9–10 SCID-Beige mice were dosed at Translational Drug Discovery with vehicle, 1.5 mg/kg or 5 mg/kg RXC004 orally twice daily, or 5 mg/kg RXC004 orally once daily, for 28 days. Formulation: 5% DMSO, 95% hydroxyl propyl beta cyclodextrin (25% w/v). Formalin-fixed, paraffin-embedded (FFPE) samples from the small intestine were assessed by hematoxylin and eosin (H&E) and/or Ki67 staining at Histologix.

SNU-1411 cells = assay: In vitro glucose uptake; format: cell-based, human; settings: Homo sapiens; SNU-1411, RXC004 100 nmol/L, 48 hours
Description: (§1) SNU-1411, HPAF-II, and HCT116 cells were treated in vitro for 48 hours with RXC004 (100 nmol/L), Latrunculin A (Abcam #ab144290; 500 nmol/L), or DMSO prior to analysis using the Glucose Uptake Glo Assay Kit (Promega #J1341). The ATPlite assay was used to control for cell viability, confirming RXC004 has no effect on proliferation at this 48 hours timepoint.

HPAF-II cells = assay: In vitro glucose uptake; format: cell-based, human; settings: Homo sapiens, RXC004 100 nmol/L, 48 hours
Description: as §1

HCT116 cells = assay: In vitro glucose uptake; format: cell-based, human; settings: HCT116, RXC004 100 nmol/L, 48 hours
Description: as §1

SNU-1411 xenograft [3] = assay: Pharmacokinetic/pharmacodynamic analysis in SNU-1411/NOD-SCID mice, 7 days; format: in vivo, mouse (NOD-SCID)
Description: (§2) To explore dose–response effects in vivo, SNU-1411 (1 × 10^7 cells) were implanted into NOD-SCID mice subcutaneously at Axis Bioservices. Animals were randomized into the indicated groups and oral dosing of RXC004 was initiated when tumors reached approximately 200 mm^3. Tumor volume measurements were taken at day 19, n ≥9 per group. Pharmacokinetic/pharmacodynamic analysis in SNU1411/NOD-SCID mice was performed in a separate study at Axis Biosciences, with tissue and plasma extracted for assessments after 7 days of RXC004 dosing. Tumor was divided into two sections; one section snap frozen and the other processed by FFPE. RXC004 levels were determined in snap frozen tumor and blood samples by LC/MS-MS. Expression analysis of the indicated genes was performed on snap frozen tumor as described above. Serial FFPE tumor sections were stained with H&E, anti-Ki67 (Abcam #Ab15580) or the dual mucin stain Alcian-blue/periodic acid shift (AB-PAS) at Histologix. IHC images were quantified using HALO software and modules (Indica Labs). The AB-PAS images were analyzed with the area quantification module on tumor area. A classifier was trained to detect differentiated and nondifferentiated tumor areas in RXC004-treated tumors using the AB-PAS–stained slides. Image registration was used to assign annotations from AB-PAS images to Ki67 images. The Ki67 images were analyzed with the multiplex IHC module and number of Ki67-positive cells were determined per mm^2 of total or differentiated tumor area.

[4] = as above; format: in vivo, mouse (NOD-SCID); settings: NOD-SCID, mouse, plasma, oral; 20 ng/mL equivalent to 10× IC50; read-out: total plasma concentration equivalent to free IC50
Description: as §2

B16F10 tumors = assay: B16F10/SCID-Beige model; format: in vivo, mouse (SCID-Beige); settings: 5 mg/kg once daily for 21 days, immunocompromised mice
Description: B16F10/SCID-Beige model was performed at Axis Bioservices. Mouse B16F10 cells (2 × 10^5) were subcutaneously implanted in flanks of the immunocompromised male SCID-Beige mice. Treatment with RXC004 (5 mg/kg once daily) was initiated at day 3, once the tumors were palpable, and tumor volume assessed over time.

Hepatocyte stability = format: in vitro ADME; settings: Human, 1 μmol/L
Description: (§3) Metabolic stability: liver microsomes and hepatocytes from human, mouse (CD1), rat (Sprague Dawley) and dog (Beagle) were obtained from Invitrogen. RXC004 (1 μmol/L) was incubated at 37°C with microsomes (0.5 mg · mL^−1) or hepatocytes (0.5 × 10^6 cells · mL^−1). Aliquots were removed at 0–45 minutes and RXC004 concentrations determined by LC/MS-MS analysis. Half-life (T1/2) and intrinsic clearance (CLint) were calculated as described in ref. [18].

Microsomal stability = format: in vitro ADME; settings: Human, 1 μmol/L
Description: as §3

SNU-1411 xenograft [5] = assay: SNU-1411 xenograft dose-response study; format: in vivo, mouse (NOD-SCID); settings: day 19; 1.5 and 5 mg/kg once daily, 1.5 mg/kg twice daily continuous or 5-day on/2-day off
Description: as §2, with “A classifier was trained to detect differentiated and nondifferentiated tumor areas in RXC004-treated tumors using the AB-PAS–stained slides. Image registration was used to assign annotations from AB-PAS images to Ki67 images.” left out

## Cc1c(-c2ccnc(C(F)(F)F)c2)ncn1CC(=O)Nc1ccc(-c2cnccn2)cn1 [RXC004, 2-[5-methyl-4-[2-(trifluoromethyl)-4-pyridyl]imidazol-1-yl]-N-(5-pyrazin-2-yl-2-pyridyl)acetamide]
Plasma protein binding; Dog
  Plasma protein binding (% free): 2.5 % free
Plasma protein binding; Human
  Plasma protein binding (% free): 4.2 % free
Plasma protein binding; Mouse
  Plasma protein binding (% free): 7.5 % free
Plasma protein binding; Rat
  Plasma protein binding (% free): 5.0 % free
SNU-1411 xenograft [1]; 7-day dosing
  18FDG tumor:blood ratios: significant decrease in tumor:blood ratios
SNU-1411 xenograft [1]; day 7, versus vehicle
  decrease in maximum standardized uptake value (18FDG-PET): 31%
[2]; 1.5 mg/kg twice daily
  Ki67 proliferation marker in intestinal crypts: no effect on the Ki67 proliferation marker
  villi architecture: No effects
[2]; 5 mg/kg once daily
  villi architecture: No effects
[2]; 5 mg/kg twice daily
  Ki67 proliferation marker in intestinal crypts: clear decrease
  body weight: loss of body weight
[2]; 5 mg/kg twice daily, only in some animals
  villi architecture: Disruption of villi architecture
SNU-1411 cells
  inhibition at 0.1 µM: > 50%
HPAF-II cells
  inhibition at 0.1 µM: > 50%
HCT116 cells
  glucose uptake: had no effect
SNU-1411 xenograft [3]; 1.5 or 5 mg/kg once daily, 7 days
  c-Myc gene expression in tumor: Inhibition of c-Myc gene expression in tumor
SNU-1411 xenograft [3]; intermediate effects at 1.5 mg/kg once daily, stronger at 5 mg/kg once daily
  tumor differentiation and mucin levels (Alcian-blue/PAS): increased tumor differentiation and increased mucin levels
SNU-1411 xenograft [3]; oral 1.5 or 5 mg/kg once daily, 7 days
  dose proportionality of levels in plasma and tumor: good dose proportionality
SNU-1411 xenograft [3]; total tumor area, more significantly in differentiated tumor
  Ki67-positive cells in tumor: Ki67-positive cells were reduced
[4]
  IC50: 2 ng/mL
B16F10 tumors
  tumor growth: did not reduce tumor growth
Hepatocyte stability
  Hepatocyte stability: CLint: <3.0 μL minute^−^1 · 10^6 cells^−^1
Microsomal stability
  Microsomal stability: CLint: 6.0 μL minute^−^1 · mg^−^1
SNU-1411 xenograft [5]
  tumor volume: Significant reduction in tumor volume

Source: paper PMC10010340, “The Wnt Pathway Inhibitor RXC004 Blocks Tumor Growth and Reverses Immune Evasion in Wnt Ligand–dependent Cancer Models” (Cancer Research Communications, 2022)
